Results as given in patent US6610483B1, “Methods for identifying cellular responses attributable to signaling molecule inhibition and inhibitors thereof” (priority 1999, dated 2003).

Key:
mutant CDC28 F88G cells = test: DNA chip array of gene transcripts in mutant CDC28 F88G yeast cells exposed to the mutant inhibitor; type: cell-based; settings: 500 nM
Method: Yeast cells expressing a functionally silent, mutant form of the wild-type protein kinase CDC28, termed CDC28 F88G, were prepared by the methods of standard yeast genetics as described in “Guide to Yeast Genetics and Molecular Biology” (Methods in Enzymology, Vol.194) by Christine Guthrie, Gerald R. Fink (Editor) Vol 194 (February 1991) Academic Press. A selective inhibitor of the mutant kinase, with little effect on the wild-type kinase, was prepared and identified using the methods described in Application Serial No. 60/115,340. Using DNA chip array technology, the levels of 6100 gene transcripts were quantitated in mRNA isolated from yeast cells expressing either wild type or F88G (mutant) CDC28 protein kinase either untreated or treated for treated for 30 minutes or 120 minutes with 500 nanomolar (nM) 4-amino-1-(tert-butyl)-3-(1′-naphthylmethyl)pyrazolo[3,4-d]pyrimidine dissolved in DMSO (500) or simply DMSO (DMSO). A change is defined as 2 fold increase or decrease in a gene transcript that is present or absent only in a particular sample. Methods for measuring transcripts were those described in Wodicka L, Dong H, Mittmann M, Ho M H, Lockhart D J, Genome-wide expression monitoring in Saccharomyces cerevisiae, Nat. Biotechnol. (1997) 15:1359-67. The results and comparisons among the gene transcripts are shown in FIGS. 1-4, with the identities of the particular gene transcripts listed in FIG. 5. Non-specific drug effects are the result of the exposure of the inhibitor to wild-type cells. The mutation effects are indicated by the alterations between the expression pattern between the mutant cells and the wild-type cells, both in the absence of inhibitor. The results of specific inhibition are shown by the differences between the mutant cells before and after exposure to the inhibitor, including increases and decreases. Effects of the inhibitor were evaluated at 30 and 120 minutes. These two time points were chosen based on the known time interval for yeast cell cycle progression which is about 90 minutes. Thus one time point shorter than the full cell cycle progression time (30 minutes) and one time point longer than […] (120 minutes) were chosen. The comparisons of results are shown in FIGS. 1-4, and the details of the particular transcripts altered in FIG. 5.

[1] = test system: wild-type yeast cells with CDC28; test: DNA chip array of gene transcripts in wild-type yeast cells exposed to the mutant inhibitor; type: cell-based; settings: 500 nM, change of 2 fold or more
Method: Yeast cells expressing a functionally silent, mutant form of the wild-type protein kinase CDC28, termed CDC28 F88G, were prepared by the methods of standard yeast genetics as described in “Guide to Yeast Genetics and Molecular Biology” (Methods in Enzymology, Vol.194) by Christine Guthrie, Gerald R. Fink (Editor) Vol 194 (February 1991) Academic Press. A selective inhibitor of the mutant kinase, with little effect on the wild-type kinase, was prepared and identified using the methods described in Application Serial No. 60/115,340. Using DNA chip array technology, the levels of 6100 gene transcripts were quantitated in mRNA isolated from yeast cells expressing either wild type or F88G (mutant) CDC28 protein kinase either untreated or treated for treated for 30 minutes or 120 minutes with 500 nanomolar (nM) 4-amino-1-(tert-butyl)-3-(1′-naphthylmethyl)pyrazolo[3,4-d]pyrimidine dissolved in DMSO (500) or simply DMSO (DMSO). A change is defined as 2 fold increase or decrease in a gene transcript that is present or absent only in a particular sample. Methods for measuring transcripts were those described in Wodicka L, Dong H, Mittmann M, Ho M H, Lockhart D J, Genome-wide expression monitoring in Saccharomyces cerevisiae, Nat. Biotechnol. (1997) 15:1359-67. […] Effects of the inhibitor were evaluated at 30 and 120 minutes. […]

PDGFR = settings: cited from earlier work

Compound	genes altered (mutant CDC28 F88G cells; 30 minute exposure) [genes]	genes decreased more than two-fold (mutant CDC28 F88G cells; 30 minute exposure) [genes]	genes increased more than two-fold (mutant CDC28 F88G cells; 30 minute exposure) [genes]	genes altered (mutant CDC28 F88G cells; 120 minute exposure) [genes]	genes decreased (mutant CDC28 F88G cells; 120 minute exposure) [genes]	genes increased (mutant CDC28 F88G cells; 120 minute exposure) [genes]	genes altered (non-specific drug effects) ([1]; 30 minute exposure) [genes]	genes altered (non-specific drug effects) ([1]; 120 minute exposure) [genes]	IC50 (PDGFR) [nM]
CC(C)(C)n1nc(Cc2cccc3ccccc23)c2c(N)ncnc21 [4-amino-1-(tert-butyl)-3-(1′-naphthylmethyl)pyrazolo[3,4-d]pyrimidine]	85	74	11	186	100	86	7	3	–
